Results published in ChEMBL document CHEMBL1201862, “PubChem BioAssay data set” (2004).
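Exposure lasted 48 hours, with cells grown in 96-well plates and compounds tested at five concentrations. The concentration for 50% growth inhibition is given as GI50.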 The source made the active and inactive calls. No stated cut-off is given here; in the data, active = GI50 up to about 1.1 µM and inactive = higher.

What was measured:
Assay in all cases: growth of human tumour cells (NCI), 48 h
OVCAR-8 = system: OVCAR-8
Malme-3M = system: Malme-3M
K562 = system: K562
U-251 = system: U-251
SR = system: SR
SNB-19 = system: SNB-19
NCI-H226 = system: NCI-H226
DMS-114 = system: DMS-114
SF-539 = system: SF-539
SF-295 = system: SF-295
LXFL 529 = system: LXFL 529
UACC-257 = system: UACC-257
KM-20L2 = system: KM-20L2
CCRF-CEM = system: CCRF-CEM
SK-MEL-28 = system: SK-MEL-28
M14 = system: M14
HCC 2998 = system: HCC 2998
MOLT-4 = system: MOLT-4
NCI-H460 = system: NCI-H460
COLO 205 = system: COLO 205
OVCAR-4 = system: OVCAR-4
SK-OV-3 = system: SK-OV-3
KM12 = system: KM12
CAKI-1 = system: CAKI-1
SN12C = system: SN12C
NCI-H23 = system: NCI-H23
SF-268 = system: SF-268
UO-31 = system: UO-31
OVCAR-3 = system: OVCAR-3
EKVX = system: EKVX
TK-10 = system: TK-10
SW-620 = system: SW-620
RPMI-8226 = system: RPMI-8226
M19-MEL = system: M19-MEL
DMS-273 = system: DMS-273
A498 = system: A498
RXF 393 = system: RXF 393
OVCAR-5 = system: OVCAR-5
HOP-62 = system: HOP-62
A549 = system: A549
HOP-92 = system: HOP-92
HCT-116 = system: HCT-116
ACHN = system: ACHN
LOX IMVI = system: LOX IMVI
UACC-62 = system: UACC-62
HT-29 = system: HT-29
IGROV-1 = system: IGROV-1
SK-MEL-5 = system: SK-MEL-5
SK-MEL-2 = system: SK-MEL-2
SNB-75 = system: SNB-75
DLD-1 = system: DLD-1
NCI-H522 = system: NCI-H522
SNB-78 = system: SNB-78
786-0 = system: 786-0
HL-60 = system: HL-60
MDA-N = system: MDA-N
MCF7 = system: MCF7
HCT-15 = system: HCT-15
MDA-MB-435 = system: MDA-MB-435
DU-145 = system: DU-145
T47D = system: T47D
Hs-578T = system: Hs-578T
NCI/ADR-RES = system: NCI/ADR-RES
PC-3 = system: PC-3
BT-549 = system: BT-549
MDA-MB-231 = system: MDA-MB-231

For `Cc1cn2c(=O)c3ccccc3nc2s1`, the GI50 (OVCAR-8) was > 100 µM (inactive), the GI50 (Malme-3M) was > 100 µM (inactive) and the GI50 (K562) was > 100 µM (inactive). The GI50 (U-251) was > 100 µM (inactive), the GI50 (SR) was > 100 µM (inactive) and the GI50 (SNB-19) was > 100 µM (inactive). For the same molecule, the GI50 (NCI-H226) was > 100 µM (inactive), the GI50 (DMS-114) was > 100 µM (inactive) and the GI50 (SF-539) was 88.7 µM (inactive). For the same molecule, the GI50 (SF-295) was > 100 µM (inactive), the GI50 (LXFL 529) was > 100 µM (inactive) and the GI50 (UACC-257) was > 100 µM (inactive). For the same molecule, the GI50 (KM-20L2) was > 100 µM (inactive), the GI50 (CCRF-CEM) was > 100 µM (inactive) and the GI50 (SK-MEL-28) was > 100 µM (inactive). For the same molecule, the GI50 (M14) was > 100 µM (inactive), the GI50 (HCC 2998) was > 100 µM (inactive) and the GI50 (MOLT-4) was > 100 µM (inactive). For the same molecule, the GI50 (NCI-H460) was > 100 µM (inactive), the GI50 (COLO 205) was > 100 µM (inactive) and the GI50 (OVCAR-4) was 76.6 µM (inactive). For the same molecule, the GI50 (SK-OV-3) was > 100 µM (inactive), the GI50 (KM12) was > 100 µM (inactive) and the GI50 (CAKI-1) was > 100 µM (inactive). For the same molecule, the GI50 (SN12C) was > 100 µM (inactive), the GI50 (NCI-H23) was > 100 µM (inactive) and the GI50 (SF-268) was > 100 µM (inactive). For the same molecule, the GI50 (UO-31) was > 100 µM (inactive), the GI50 (OVCAR-3) was > 100 µM (inactive) and the GI50 (EKVX) was > 100 µM (inactive). The GI50 (TK-10) was > 100 µM (inactive), the GI50 (SW-620) was > 100 µM (inactive) and the GI50 (RPMI-8226) was > 100 µM (inactive). For the same molecule, the GI50 (M19-MEL) was > 100 µM (inactive), the GI50 (DMS-273) was > 100 µM (inactive) and the GI50 (A498) was > 100 µM (inactive). For the same molecule, the GI50 (RXF 393) was > 100 µM (inactive), the GI50 (OVCAR-5) was > 100 µM (inactive) and the GI50 (HOP-62) was > 100 µM (inactive). For the same molecule, the GI50 (A549) was > 100 µM (inactive), the GI50 (HOP-92) was > 100 µM (inactive) and the GI50 (HCT-116) was > 100 µM (inactive). The GI50 (ACHN) was > 100 µM (inactive), the GI50 (LOX IMVI) was > 100 µM (inactive) and the GI50 (UACC-62) was > 100 µM (inactive). The GI50 (HT-29) was > 100 µM (inactive), the GI50 (IGROV-1) was > 100 µM (inactive) and the GI50 (SK-MEL-5) was > 100 µM (inactive). The GI50 (SK-MEL-2) was > 100 µM (inactive), the GI50 (SNB-75) was 92.3 µM (inactive) and the GI50 (DLD-1) was > 100 µM (inactive). The GI50 (NCI-H522) was > 100 µM (inactive), the GI50 (SNB-78) was > 100 µM (inactive) and the GI50 (786-0) was > 100 µM (inactive). The GI50 (HL-60) was > 100 µM (inactive).

`O=C1Nc2ccccc2SC1=C(C(=O)c1ccccc1)C(=O)c1ccccc1` was tested, and the GI50 (OVCAR-8) was 52.4 µM (inactive), the GI50 (Malme-3M) was > 85.7 µM (inactive) and the GI50 (K562) was 4.06 µM (inactive). The GI50 (U-251) was 33.2 µM (inactive), the GI50 (SR) was 17.7 µM (inactive) and the GI50 (MDA-N) was 19.7 µM (inactive). For the same molecule, the GI50 (SNB-19) was 41.2 µM (inactive), the GI50 (NCI-H226) was 45.8 µM (inactive) and the GI50 (SF-539) was 39.6 µM (inactive). The GI50 (SF-295) was 17.1 µM (inactive), the GI50 (UACC-257) was 33.3 µM (inactive) and the GI50 (CCRF-CEM) was 4.17 µM (inactive). For the same molecule, the GI50 (SK-MEL-28) was 55.6 µM (inactive), the GI50 (M14) was 28.3 µM (inactive) and the GI50 (HCC 2998) was 22.2 µM (inactive). The GI50 (MOLT-4) was 1.04 µM (active), the GI50 (NCI-H460) was 28.1 µM (inactive) and the GI50 (MCF7) was 34.9 µM (inactive). For the same molecule, the GI50 (COLO 205) was 29.2 µM (inactive), the GI50 (OVCAR-4) was 43.2 µM (inactive) and the GI50 (SK-OV-3) was 16 µM (inactive). The GI50 (HCT-15) was 37.5 µM, the GI50 (KM12) was 34 µM (inactive) and the GI50 (CAKI-1) was 60.4 µM (inactive). For the same molecule, the GI50 (MDA-MB-435) was 21.8 µM (inactive), the GI50 (SN12C) was 24 µM (inactive) and the GI50 (NCI-H23) was 29.7 µM (inactive). The GI50 (DU-145) was 38.1 µM (inactive), the GI50 (SF-268) was 32.1 µM (inactive) and the GI50 (UO-31) was 53.3 µM (inactive). The GI50 (OVCAR-3) was 12.3 µM (inactive), the GI50 (EKVX) was 34.8 µM (inactive) and the GI50 (TK-10) was 63.4 µM (inactive). For the same molecule, the GI50 (SW-620) was 34.6 µM (inactive), the GI50 (RPMI-8226) was 28.8 µM (inactive) and the GI50 (T47D) was 53 µM (inactive). The GI50 (A498) was 32.4 µM (inactive), the GI50 (RXF 393) was 55 µM (inactive) and the GI50 (OVCAR-5) was 27.8 µM (inactive). For the same molecule, the GI50 (HOP-62) was 46.7 µM (inactive), the GI50 (A549) was 36.6 µM (inactive) and the GI50 (Hs-578T) was 31.6 µM (inactive). For the same molecule, the GI50 (HOP-92) was 38.1 µM (inactive), the GI50 (NCI/ADR-RES) was 40.1 µM (inactive) and the GI50 (HCT-116) was 29.5 µM (inactive). The GI50 (PC-3) was 26.3 µM (inactive), the GI50 (ACHN) was 42.1 µM (inactive) and the GI50 (LOX IMVI) was 31.3 µM (inactive). The GI50 (UACC-62) was 20.7 µM (inactive), the GI50 (HT-29) was 32.4 µM (inactive) and the GI50 (BT-549) was 30.5 µM (inactive). The GI50 (IGROV-1) was 42.3 µM (inactive), the GI50 (SK-MEL-5) was 32.9 µM (inactive) and the GI50 (SK-MEL-2) was 24.8 µM (inactive). The GI50 (SNB-75) was 51.5 µM (inactive), the GI50 (NCI-H522) was 20.4 µM (inactive) and the GI50 (786-0) was 43.7 µM (inactive). The GI50 (MDA-MB-231) was 27.1 µM (inactive) and the GI50 (HL-60) was 0.091 µM (active).
